Measured values from article PMC2820545, “Mechanistic Characterization and Molecular Modeling of Hepatitis B Virus Polymerase Resistance to Entecavir” (PLoS ONE, 2010).
Like-named read-outs stand apart in the source and are kept apart here.

Tests used:
LVDr L180M + M204V HBV [1] = assay: HBV cell culture susceptibility (HBV-transfected HepG2 cells); type: cell-based; settings: Hepatitis B virus
Procedure: (§1) HepG2 human hepatoma cells (American Type Culture Collection) were maintained as described. The laboratory clone of HBV was the genotype D ayw serotype clone kindly provided by Dr. Steven Goff in the plasmid pCMV-HBV [41]. Plasmids expressing HBV RT with resistance substitutions were prepared using QuikChange® site-directed mutagenesis (Stratagene, LaJolla, CA).
(§2) HepG2 cell culture susceptibility assays were performed in cells transfected with HBV expression plasmids and cultured in the presence of a titration of antiviral compounds, as described in detail elsewhere. The levels of replicated, released HBV virions was measured at day five through immunocapture of detergent released nucleocapsids with anti-HBV core Ab and quantification of encapsidated HBV DNA [5]. Data were plotted as percent inhibition and EC50 values calculated as the drug concentration where 50% inhibition of extracellular HBV occurred.

LVDr + T184L HBV = assay: as above; type: cell-based; settings: Hepatitis B virus, averaged from 2 isolates, read-out: ETV EC50, Average ± SD (Range)
Procedure: as §1, §2

LVDr + M250V HBV = assay: as above; type: cell-based; settings: Hepatitis B virus, averaged from 2 isolates, read-out: ETV EC50, Average ± SD (Range)
Procedure: as §1, §2

LVDr + T184G + S202I HBV = assay: as above; type: cell-based; settings: Hepatitis B virus, single patient isolate, read-out: ETV EC50, Average ± SD (Range)
Procedure: as §1, §2

Wildtype HBV = assay: as above; type: cell-based; settings: Hepatitis B virus
Procedure: as §1, §2

LVDr + S202G HBV = assay: as above; type: cell-based; settings: Hepatitis B virus, averaged from 2 isolates, read-out: ETV EC50, Average ± SD (Range)
Procedure: as §1, §2

[2] = test system: HBV clones with ETVr signature substitutions in a LVDr background; assay: HBV cell culture susceptibility, ETVr clones as a group; type: cell-based, hepatitis B virus
Source text: The levels of ETVr observed in cell culture and in vitro enzymatic assays of representative clones with ETVr substitutions are shown in Table 1. […] High levels of ETVr were observed when HBV clones contained ETVr signature substitutions in a LVDr background both in vitro (>400-fold) and in culture (>200-fold), respectively (Table 1). A full analysis of the different ETVr substitutions in culture has been reported for engineered and clinical ETVr HBV isolates.
as §2

[3] = test system: wildtype, LVDr substituted and LVDr + T184 or S202 substituted HBV; assay: HBV cell culture strand-specific EC50 determination; type: cell-based, hepatitis B virus; settings: strand-specific riboprobes, minus vs plus strand synthesis
Source text: (§3) ETV inhibits HBV polymerase synthesis of DNA in vitro during both RNA-directed first (minus) strand synthesis as well as DNA-directed second (plus) strand synthesis. To determine if ETVr was influenced by the template for DNA synthesis, cell culture EC50 determinations were made using strand-specific riboprobes to hybridize to the synthesized HBV DNA, in parallel with the typical double-stranded DNA probe. In this way an ETV EC50 for each strand of DNA synthesis during the HBV cell culture was determined. […] The minus strand EC50 was similar to the EC50 obtained using the double-stranded DNA probe. These observations are consistent with M250 changes in the primer-grip region of HBV RT influencing ETVr at least in part through the template for DNA synthesis. An independent observation supported this hypothesis; resistance was seen using nucleocapsids prepared in our typical manner (Materials & Methods), isolated from cells grown in PFA to inhibit minus strand synthesis, enhancing the in vitro minus-strand synthesis activity of the preparations. […]
(§4) Figure 5 Analysis of ETVr through strand-specific DNA synthesis in culture. […] The levels of HBV DNA synthesized in the presence of ETV was determined by HBV-specific probe hybridization to HBV nucleocapsid DNA from the cultures. […]

[4] = test system: LVDr HBV with M250V or M250L; assay: as above; type: cell-based, hepatitis B virus; settings: strand-specific riboprobes
Source text: as §3, §4

[5] = test system: wildtype or ETVr HBV polymerase; assay: Pyrophosphorolysis removal of incorporated ETV from HBV DNA; type: biochemical, hepatitis B virus; settings: wildtype or ETVr enzymes; data not shown
Source text: The inability of ETV to be proofread by HIV RT has been reported by Tchesnokov et al..

LVDr L180M + M204V HBV [6] = test system: LVDr L180M + M204V HBV; design: method as in PMID 17267485, PMID 18362040; settings: cited from earlier work

**Q.** What does the source list for C=C1[C@H](CO)[C@@H](O)C[C@@H]1n1cnc2c(=O)[nH]c(N)nc21 [ETV, Entecavir]?
**A.** EC50 (LVDr L180M + M204V HBV [1]; Cell culture, LVDr L180M + M204V, single isolate, read-out: ETV EC50, Average ± SD (Range)): 0.0304 ± 0.0216 µM; EC50 (LVDr L180M + M204V HBV [1]; panel of 15 LVDr isolates, read-out: average ETV EC50): 0.0311 µM; EC50 (LVDr + T184L HBV): 0.738 ± 0.119 µM; EC50 (LVDr + M250V HBV): 3.08 µM; EC50 (LVDr + T184G + S202I HBV): > 4 µM; EC50 (Wildtype HBV; Cell culture, Wildtype HBV, single isolate, read-out: ETV EC50, Average ± SD (Range)): 0.003 ± 0.0015 µM; EC50 (Wildtype HBV; panel of 76 wildtype isolates, read-out: average ETV EC50): 0.0034 µM; EC50 (LVDr + S202G HBV): 1.21 µM; level of ETVr in culture [2]: > 200 fold; strand-specific ETV EC50, both strands of HBV DNA compared [3]: nearly equivalent levels of susceptibility; strand-specific ETV EC50, first (minus) strand versus second (plus) strand [4]: increased relative to that for the second (plus) strand; removal of ETV incorporated into HBV DNA using pyrophosphorolysis [5]: unable to demonstrate removal; cross-resistance to ETV in culture (LVDr L180M + M204V HBV [6]): approximately 8 fold
